Experimental data published in patent publication US20090298820A1, “3-SUBSTITUTED-1H-PYRROLO[2,3-B]PYRIDINE AND 3-SUBSTITUTED-1H-PYRROLO[3,2-B]PYRIDINE COMPOUNDS, THEIR USE AS MTOR KINASE AND PI3 KINASE INHIBITORS, AND THEIR SYNTHESES” (Wyeth, priority 2008, published 2009).
pIC50: −log10 of the molar value.

Assays:
mTOR = mTOR (Homo sapiens, UniProt P42345); experiment: mTOR enzyme assay (DELFIA format, His6-S6K substrate); format: biochemical; conditions: read-out: mTOR Kinase Median IC50
PI3Kγ = PI3Kγ (Homo sapiens, UniProt P48736); experiment: PI3K-gamma fluorescence polarization assay; format: biochemical; conditions: read-out: PI3Kγ Median IC50
PI3Kα = PI3Kα (Homo sapiens, UniProt P42336); experiment: PI3K-alpha fluorescence polarization assay; format: biochemical; conditions: read-out: PI3Kα Median IC50
Chain of PI3Kα (P42336 whole entry, species assumed): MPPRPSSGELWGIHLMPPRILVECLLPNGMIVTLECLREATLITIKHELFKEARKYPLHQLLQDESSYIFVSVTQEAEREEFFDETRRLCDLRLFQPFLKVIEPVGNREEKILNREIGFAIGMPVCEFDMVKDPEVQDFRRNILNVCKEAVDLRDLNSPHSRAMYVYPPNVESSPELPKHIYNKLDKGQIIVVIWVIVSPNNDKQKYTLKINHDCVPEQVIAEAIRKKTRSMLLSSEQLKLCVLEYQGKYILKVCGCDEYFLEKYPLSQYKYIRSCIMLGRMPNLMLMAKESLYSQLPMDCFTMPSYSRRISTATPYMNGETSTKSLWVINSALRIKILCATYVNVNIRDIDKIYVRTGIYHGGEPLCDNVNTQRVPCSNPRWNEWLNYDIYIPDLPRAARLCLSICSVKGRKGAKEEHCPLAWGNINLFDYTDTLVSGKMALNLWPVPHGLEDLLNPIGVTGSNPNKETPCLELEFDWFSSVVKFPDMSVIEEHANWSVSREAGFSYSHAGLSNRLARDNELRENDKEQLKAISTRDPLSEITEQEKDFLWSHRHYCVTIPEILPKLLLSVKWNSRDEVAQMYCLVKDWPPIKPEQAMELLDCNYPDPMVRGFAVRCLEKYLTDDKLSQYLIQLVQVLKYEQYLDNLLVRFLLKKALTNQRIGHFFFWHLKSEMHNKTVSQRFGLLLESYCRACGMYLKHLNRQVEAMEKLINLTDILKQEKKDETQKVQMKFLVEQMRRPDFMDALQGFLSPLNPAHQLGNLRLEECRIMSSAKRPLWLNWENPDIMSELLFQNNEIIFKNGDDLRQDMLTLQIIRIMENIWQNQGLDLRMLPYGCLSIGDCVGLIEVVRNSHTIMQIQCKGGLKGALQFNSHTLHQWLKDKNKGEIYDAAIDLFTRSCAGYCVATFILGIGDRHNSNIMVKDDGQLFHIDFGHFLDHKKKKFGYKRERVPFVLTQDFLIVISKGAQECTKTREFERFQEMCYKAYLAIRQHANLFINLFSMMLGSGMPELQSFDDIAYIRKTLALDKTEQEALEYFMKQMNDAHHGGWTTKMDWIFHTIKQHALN
Chain of PI3Kα (P27986 whole entry partner, species assumed): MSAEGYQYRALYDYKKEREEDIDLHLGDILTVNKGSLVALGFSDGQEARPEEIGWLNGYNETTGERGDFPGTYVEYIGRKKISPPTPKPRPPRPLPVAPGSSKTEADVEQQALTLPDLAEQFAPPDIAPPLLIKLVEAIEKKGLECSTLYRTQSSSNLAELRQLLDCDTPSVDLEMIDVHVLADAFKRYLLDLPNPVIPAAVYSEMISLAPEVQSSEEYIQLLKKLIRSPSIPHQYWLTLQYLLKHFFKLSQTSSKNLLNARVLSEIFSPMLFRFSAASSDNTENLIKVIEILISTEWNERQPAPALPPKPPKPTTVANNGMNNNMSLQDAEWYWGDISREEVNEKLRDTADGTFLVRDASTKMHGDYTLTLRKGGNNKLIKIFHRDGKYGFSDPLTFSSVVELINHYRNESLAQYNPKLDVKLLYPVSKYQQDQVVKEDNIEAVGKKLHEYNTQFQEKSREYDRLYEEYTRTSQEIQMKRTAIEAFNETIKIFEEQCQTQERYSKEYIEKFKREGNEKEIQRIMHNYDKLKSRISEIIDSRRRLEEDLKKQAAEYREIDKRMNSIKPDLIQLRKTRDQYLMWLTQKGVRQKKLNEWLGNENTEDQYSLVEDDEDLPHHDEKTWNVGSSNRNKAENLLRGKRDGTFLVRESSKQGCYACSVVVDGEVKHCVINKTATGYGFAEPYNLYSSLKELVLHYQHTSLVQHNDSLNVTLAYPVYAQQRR

Chain of PI3Kγ (P48736 whole entry, species assumed): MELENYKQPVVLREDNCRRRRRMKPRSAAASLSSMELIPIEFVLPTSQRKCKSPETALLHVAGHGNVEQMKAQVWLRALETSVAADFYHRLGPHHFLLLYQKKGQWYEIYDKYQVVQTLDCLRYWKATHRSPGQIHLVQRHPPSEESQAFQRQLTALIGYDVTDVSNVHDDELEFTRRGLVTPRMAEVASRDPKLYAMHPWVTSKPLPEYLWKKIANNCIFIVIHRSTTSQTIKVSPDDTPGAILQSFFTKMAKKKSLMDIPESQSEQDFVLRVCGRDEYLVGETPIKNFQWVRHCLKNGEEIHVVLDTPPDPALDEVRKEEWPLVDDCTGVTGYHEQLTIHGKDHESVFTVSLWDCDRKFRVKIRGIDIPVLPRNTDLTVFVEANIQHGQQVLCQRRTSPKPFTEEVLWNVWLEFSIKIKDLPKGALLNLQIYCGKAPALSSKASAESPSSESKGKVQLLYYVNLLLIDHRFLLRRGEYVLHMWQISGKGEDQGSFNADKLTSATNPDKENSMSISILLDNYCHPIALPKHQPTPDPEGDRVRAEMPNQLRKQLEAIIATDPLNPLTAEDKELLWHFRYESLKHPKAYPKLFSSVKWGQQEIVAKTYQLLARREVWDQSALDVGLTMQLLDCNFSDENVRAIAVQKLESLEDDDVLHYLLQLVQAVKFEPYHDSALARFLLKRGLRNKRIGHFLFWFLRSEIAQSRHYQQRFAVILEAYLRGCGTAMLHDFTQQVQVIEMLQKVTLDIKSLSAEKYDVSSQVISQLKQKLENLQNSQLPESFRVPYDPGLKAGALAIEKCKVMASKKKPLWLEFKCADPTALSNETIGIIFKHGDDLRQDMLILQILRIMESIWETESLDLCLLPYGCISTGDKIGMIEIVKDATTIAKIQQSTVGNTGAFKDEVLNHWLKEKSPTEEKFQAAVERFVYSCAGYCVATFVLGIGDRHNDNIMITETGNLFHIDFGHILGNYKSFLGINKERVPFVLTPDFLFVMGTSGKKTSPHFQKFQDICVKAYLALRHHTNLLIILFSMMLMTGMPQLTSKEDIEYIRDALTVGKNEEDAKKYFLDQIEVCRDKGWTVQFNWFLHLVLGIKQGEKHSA

| Compound | pIC50 (mTOR) | melting point | pIC50 (PI3Kγ) | pIC50 (PI3Kα) |
| --- | --- | --- | --- | --- |
| Cn1cc(/C=C2\Oc3cc(O)cc(O)c3C2=O)c2c(-c3ccc(Cl)cc3)ccnc21 [Compound 64, (2Z)-2-{[4-(4-chlorophenyl)-1-methyl-1H-pyrrolo[2,3-b]pyridin-3-yl]methylene}-4,6-dihydroxy-1-benzofuran-3(2H)-one] | 8.74 | 345 °C | 7.09 | 7.54 |
| Cn1cc(/C=C2\Oc3ccc(N)cc3C2=O)c2c(-c3ccccc3)ccnc21 [Compound 58, (2Z)-5-amino-2-[(1-methyl-4-phenyl-1H-pyrrolo[2,3-b]pyridin-3-yl)methylene]-1-benzofuran-3(2H)-one] | 7.78 | 232 to 239 °C | 6.02 | 6.70 |
| CCC1(CC)CN(c2ccnc3c2c(/C=C2\Oc4ccc(NC(=O)Nc5cccnc5)cc4C2=O)cn3C)CCO1 [Compound 295, 1-[(2Z)-2-{[4-(2,2-diethylmorpholin-4-yl)-1-methyl-1H-pyrrolo[2,3-b]pyridin-3-yl]methylidene}-3-oxo-2,3-dihydro-1-benzofuran-5-yl]-3-pyridin-3-ylurea] | 7.67 | 225 to 228 °C | 5.91 | 6.14 |
| Cn1cc(/C=C2\Oc3cccc(O)c3C2=O)c2c(N3CCC(C(=O)N4CCCC4)CC3)ccnc21 [Compound 152, (2Z)-4-hydroxy-2-({1-methyl-4-[4-(pyrrolidin-1-ylcarbonyl)piperidin-1-yl]-1H-pyrrolo[2,3-b]pyridin-3-yl}methylidene)-1-benzofuran-3(2H)-one] | 9.22 | 191 to 207 °C | 7.49 | 7.51 |
| CNC(=O)Nc1ccc2c(c1)C(=O)/C(=C/c1cn(C)c3nccc(-c4ccccc4)c13)O2 [Compound 38, 1-methyl-3-{(2Z)-2-[(1-methyl-4-phenyl-1H-pyrrolo[2,3-b]pyridin-3-yl)methylene]-3-oxo-2,3-dihydro-1-benzofuran-5-yl}urea] | 7.43 | 265 to 270 °C (dec.) | 5.80 | 6.63 |
| Cn1cc(/C=C2\Oc3ccc(NC(=O)Nc4cccnc4)cc3C2=O)c2c(N3CCC(C(=O)NCc4ccncc4)CC3)ccnc21 [Compound 271, 1-{1-methyl-3-[(Z)-{3-oxo-5-[(pyridin-3-ylcarbamoyl)amino]-1-benzofuran-2(3H)-ylidene}methyl]-1H-pyrrolo[2,3-b]pyridin-4-yl}-N-(pyridin-4-ylmethyl)piperidine-4-carboxamide] | 8.05 | 208 to 216 °C | 5.41 | 5.39 |
| CN(C)C(=O)C1CCN(c2ccnc3c2c(/C=C2\Oc4ccc(NC(=O)N5CCOCC5)cc4C2=O)cn3C)CC1 [Compound 170, N-[(2Z)-2-({4-[4-(dimethylcarbamoyl)piperidin-1-yl]-1-methyl-1H-pyrrolo[2,3-b]pyridin-3-yl}methylidene)-3-oxo-2,3-dihydro-1-benzofuran-5-yl]morpholine-4-carboxamide] | 7.04 | 128 °C | < 5.00 | 5.51 |
| Cn1cc(/C=C2\Oc3ccc(NC(=O)Nc4cccnc4)cc3C2=O)c2c(N3CC4CNCC(C3)O4)ccnc21 [Compound 293, 1-[(2Z)-2-{[1-methyl-4-(9-oxa-3,7-diazabicyclo[3.3.1]non-3-yl)-1H-pyrrolo[2,3-b]pyridin-3-yl]methylidene}-3-oxo-2,3-dihydro-1-benzofuran-5-yl]-3-pyridin-3-ylurea] | 6.52 | 193 to 200 °C | 6.06 | < 5.00 |
| Cn1cc(/C=C2\Oc3ccc(NC(=O)Nc4cccnc4)cc3C2=O)c2c(N3CCC(C(=O)N4CC5CCC(C4)O5)CC3)ccnc21 [Compound 250, 1-[(2Z)-2-({1-methyl-4-[4-(8-oxa-3-azabicyclo[3.2.1]oct-3-ylcarbonyl)piperidin-1-yl]-1H-pyrrolo[2,3-b]pyridin-3-yl}methylene)-3-oxo-2,3-dihydro-1-benzofuran-5-yl]-3-pyridin-3-ylurea] | 7.77 | 260 to 265 °C | 5.55 | 5.78 |
| COCC1CN(C(=O)C2CCN(c3ccnc4c3c(/C=C3\Oc5cccc(O)c5C3=O)cn4C)CC2)CCO1 (stereo not shown) [Compound 311, (2Z)-4-hydroxy-2-{[4-(4-{[2-(methoxymethyl)morpholin-4-yl]carbonyl}piperidin-1-yl)-1-methyl-1H-pyrrolo[2,3-b]pyridin-3-yl]methylidene}-1-benzofuran-3(2H)-one] | 8.42 | 112 to 115 °C | 6.16 | 6.84 |
| Cn1cc(/C=C2\Oc3cccc(O)c3C2=O)c2c(-c3ccc(N4CC5CCC(C4)O5)cc3)ccnc21 [Compound 157, (2Z)-4-hydroxy-2-({1-methyl-4-[4-(8-oxa-3-azabicyclo[3.2.1]oct-3-yl)phenyl]-1H-pyrrolo[2,3-b]pyridin-3-yl}methylidene)-1-benzofuran-3(2H)-one] | 8.03 | 252 to 260 °C (dec.) | 7.11 | 7.13 |
| Cn1cc(/C=C2\Oc3ccc(NC(=O)Nc4cccnc4)cc3C2=O)c2c(N3CC4CCC(C3)O4)ccnc21 [Compound 167, 1-[(2Z)-2-{[1-methyl-4-(8-oxa-3-azabicyclo[3.2.1]oct-3-yl)-1H-pyrrolo[2,3-b]pyridin-3-yl]methylidene}-3-oxo-2,3-dihydro-1-benzofuran-5-yl]-3-pyridin-3-ylurea] | 7.84 | 226 to 230 °C | < 5.00 | 5.68 |

More lines, now with the values ahead:

| pIC50 (mTOR) | melting point | pIC50 (PI3Kγ) | pIC50 (PI3Kα) | Compound |
| --- | --- | --- | --- | --- |
| 8.03 | 125 to 135 °C | 5.62 | 5.91 | CN(Cc1ccncc1)C(=O)C1CCN(c2ccnc3c2c(/C=C2\Oc4ccc(NC(=O)Nc5cccnc5)cc4C2=O)cn3C)CC1 [Compound 255, N-methyl-1-{1-methyl-3-[(Z)-{3-oxo-5-[(pyridin-3-ylcarbamoyl)amino]-1-benzofuran-2(3H)-ylidene}methyl]-1H-pyrrolo[2,3-b]pyridin-4-yl}-N-(pyridin-4-ylmethyl)piperidine-4-carboxamide] |
| 7.57 | 218 to 222 °C (dec.) | 6.11 | 6.46 | Cn1cc(/C=C2\Oc3ccc(NC(=O)Nc4cccnc4)cc3C2=O)c2c(N3CC4CC3CO4)ccnc21 (stereo not shown) [Compound 283, 1-[(2Z)-2-{[1-methyl-4-(2-oxa-5-azabicyclo[2.2.1]hept-5-yl)-1H-pyrrolo[2,3-b]pyridin-3-yl]methylidene}-3-oxo-2,3-dihydro-1-benzofuran-5-yl]-3-pyridin-3-ylurea] |
| < 5.40 | 251 to 253 °C | 5.74 | < 5.00 | Cn1cc(/C=C2\Oc3cccc(NC(=O)C(C)(C)C)c3C2=O)c2c(-c3ccccc3)ccnc21 [Compound 68, 2,2-dimethyl-N-{(2Z)-2-[(1-methyl-4-phenyl-1H-pyrrolo[2,3-b]pyridin-3-yl)methylene]-3-oxo-2,3-dihydro-1-benzofuran-4-yl}propanamide] |
| 7.99 | 310 to 318 °C | 6.50 | 7.04 | Cn1cc(/C=C2\Oc3cccc(O)c3C2=O)c2c(-c3cccc(S(C)(=O)=O)c3)ccnc21 [Compound 75, (2Z)-4-hydroxy-2-({1-methyl-4-[3-(methylsulfonyl)phenyl]-1H-pyrrolo[2,3-b]pyridin-3-yl}methylene)-1-benzofuran-3(2H)-one] |
| 6.40 | 275 to 280 °C | < 5.00 | 5.26 | CN(C)C(=O)Nc1ccc2c(c1)C(=O)/C(=C/c1cn(C)c3nccc(-c4ccccc4)c13)O2 [Compound 161, 1,1-dimethyl-3-{(2Z)-2-[(1-methyl-4-phenyl-1H-pyrrolo[2,3-b]pyridin-3-yl)methylidene]-3-oxo-2,3-dihydro-1-benzofuran-5-yl}urea] |
| 7.98 | 261 to 263 °C | 7.47 | 7.28 | CN(C)CCCNC(=O)Nc1ccc2c(c1)C(=O)/C(=C/c1cn(C)c3nccc(N4CC5CCC(C4)O5)c13)O2 [Compound 241, 1-[3-(dimethylamino)propyl]-3-[(2Z)-2-{[1-methyl-4-(8-oxa-3-azabicyclo[3.2.1]oct-3-yl)-1H-pyrrolo[2,3-b]pyridin-3-yl]methylene}-3-oxo-2,3-dihydro-1-benzofuran-5-yl]urea] |
| 8.49 | 162 to 166 °C | 6.40 | 6.65 | C[C@@H]1CN(C(=O)C2CCN(c3ccnc4c3c(/C=C3\Oc5cccc(O)c5C3=O)cn4C)CC2)C[C@H](C)O1 [Compound 302, (2Z)-2-{[4-(4-{[(2R,6S)-2,6-dimethylmorpholin-4-yl]carbonyl}piperidin-1-yl)-1-methyl-1H-pyrrolo[2,3-b]pyridin-3-yl]methylidene}-4-hydroxy-1-benzofuran-3(2H)-one] |
| < 5.40 | 227 to 229 °C | 5.40 | 5.16 | Cn1cc(/C=C2\Oc3ccc(Br)cc3C2=O)c2c(-c3ccccc3)ccnc21 [Compound 37, (2Z)-5-bromo-2-[(1-methyl-4-phenyl-1H-pyrrolo[2,3-b]pyridin-3-yl)methylene]-1-benzofuran-3(2H)-one] |
| 5.61 | 211 to 213 °C | < 5.00 | < 5.00 | CN1CCN(C(=O)Nc2ccc3c(c2)C(=O)/C(=C/c2cn(C)c4nccc(-c5ccccc5)c24)O3)CC1 [Compound 188, 4-methyl-N-{(2Z)-2-[(1-methyl-4-phenyl-1H-pyrrolo[2,3-b]pyridin-3-yl)methylidene]-3-oxo-2,3-dihydro-1-benzofuran-5-yl}piperazine-1-carboxamide] |
| 8.46 | 274 to 275 °C | 6.73 | 7.05 | Cn1cc(/C=C2\Oc3cccc(O)c3C2=O)c2c(-c3ccccc3)ccnc21 [Compound 31, (2Z)-4-hydroxy-2-[(1-methyl-4-phenyl-1H-pyrrolo[2,3-b]pyridin-3-yl)methylene]-1-benzofuran-3(2H)-one] |
